Data on 23 compounds can be found in patent US20240067657A1, “AMIDO-SUBSTITUTED PYRIDYL COMPOUNDS AND METHODS OF USE THEREOF FOR THE TREATMENT OF HERPESVIRUSES” (Merck Sharp & Dohme LLC, priority 2020, published 2024).

Assay [1] concerns the target T1, Human cytomegalovirus DNA polymerase (Human cytomegalovirus, UniProt P08546).
T1 construct: made in house; host or cells: SF21 insect cells (baculovirus vector)
The assay can be described thus: HCMV polymerase assay (AlphaLISA, IC50). Conditions: polymerase assay of Example 190. The class given is biochemical. The gist of the method: (§1)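 Baculovirus-expressed polymerase (HCMV 0.2 nM, VZV 0.4 nM final) preincubated 30 min at room temperature with compound in pH 7.5 HEPES buffer; reaction started with 1.6 nM DIG-primer/template and nM dNTPs including biotin-dUTP, run 60 min at 37° C. Incorporation detected by AlphaLISA; IC50 from 4-parameter fit.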

Assay [2] addresses T2, varicella zoster virus DNA polymerase (Varicella-zoster virus, UniProt P09252).
T2 construct: made in house; host or cells: SF21 insect cells (baculovirus vector)
Kind of assay: VZV polymerase assay (AlphaLISA, IC50). The class given is biochemical. Conditions: polymerase assay of Example 190. The gist of the method: as §1

Assay [3] deals with VZV in MeWo or MRC5 cells. Kind of assay: Viral qPCR assay VZV (V0/V1, V2/V3), EC50. The class given is cell-based. The note with it: 10%. The method in brief:
(§2)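 Infected cells added to compounds (10-point 3-fold series), ~72 h at 37 °C, then lysed; viral genomes by TaqMan qPCR against plasmid standard, normalized to PPIA in V0/V1 only, EC50 from 4-parameter fit. HCMV AD169, 0.05-0.1 pfu/cell, ± 50% FBS; VZV 0.04-0.1 pfu/cell; HSV-1 F 0.0005-0.004 pfu/cell.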

The test system of assay [4] is HCMV Strain AD169 in MRC-5 cells. The assay can be described thus: Viral qPCR assay HCMV (V0/V1, V2/V3), EC50. The class given is cell-based. The note with it: Human betaherpesvirus 5, AD169, MRC5, viral qPCR assay of Example 191; read-out: HCMV Cell (EC50). The method in brief:
as §2
(Quantitative PCR measures a nucleic acid by following its amplification.)

Assay [5] concerns HSV-1 Strain F in Vero or MRC5 cells. The assay can be described thus: Viral qPCR assay HSV-1 (V0/V1, V2/V3), EC50. Type of assay: cell-based. Conditions: 10%. The gist of the method: as §2
Setting [6] is: Human alphaherpesvirus 3, MRC5, MRC5 cells, read-out: VZV Cell (EC50) MRC5 10%.
Setting [7] is: Human alphaherpesvirus 3, MeWo, MEWO cells, read-out: VZV Cell (EC50) MEWO 10%.
[8] abbreviates: Human alphaherpesvirus 1, MRC5, MRC5 cells, read-out: HSV1 Cell (EC50) MRC5 10%.
The mark [9] stands for this setting: Human alphaherpesvirus 1, Vero, VERO cells, read-out: HSV1 Cell (EC50) VERO 10%.

pEC50, pIC50: −log10 of the molar value. Where two headings read alike, the source gives them in different places.

T2 sequence (P09252 whole entry): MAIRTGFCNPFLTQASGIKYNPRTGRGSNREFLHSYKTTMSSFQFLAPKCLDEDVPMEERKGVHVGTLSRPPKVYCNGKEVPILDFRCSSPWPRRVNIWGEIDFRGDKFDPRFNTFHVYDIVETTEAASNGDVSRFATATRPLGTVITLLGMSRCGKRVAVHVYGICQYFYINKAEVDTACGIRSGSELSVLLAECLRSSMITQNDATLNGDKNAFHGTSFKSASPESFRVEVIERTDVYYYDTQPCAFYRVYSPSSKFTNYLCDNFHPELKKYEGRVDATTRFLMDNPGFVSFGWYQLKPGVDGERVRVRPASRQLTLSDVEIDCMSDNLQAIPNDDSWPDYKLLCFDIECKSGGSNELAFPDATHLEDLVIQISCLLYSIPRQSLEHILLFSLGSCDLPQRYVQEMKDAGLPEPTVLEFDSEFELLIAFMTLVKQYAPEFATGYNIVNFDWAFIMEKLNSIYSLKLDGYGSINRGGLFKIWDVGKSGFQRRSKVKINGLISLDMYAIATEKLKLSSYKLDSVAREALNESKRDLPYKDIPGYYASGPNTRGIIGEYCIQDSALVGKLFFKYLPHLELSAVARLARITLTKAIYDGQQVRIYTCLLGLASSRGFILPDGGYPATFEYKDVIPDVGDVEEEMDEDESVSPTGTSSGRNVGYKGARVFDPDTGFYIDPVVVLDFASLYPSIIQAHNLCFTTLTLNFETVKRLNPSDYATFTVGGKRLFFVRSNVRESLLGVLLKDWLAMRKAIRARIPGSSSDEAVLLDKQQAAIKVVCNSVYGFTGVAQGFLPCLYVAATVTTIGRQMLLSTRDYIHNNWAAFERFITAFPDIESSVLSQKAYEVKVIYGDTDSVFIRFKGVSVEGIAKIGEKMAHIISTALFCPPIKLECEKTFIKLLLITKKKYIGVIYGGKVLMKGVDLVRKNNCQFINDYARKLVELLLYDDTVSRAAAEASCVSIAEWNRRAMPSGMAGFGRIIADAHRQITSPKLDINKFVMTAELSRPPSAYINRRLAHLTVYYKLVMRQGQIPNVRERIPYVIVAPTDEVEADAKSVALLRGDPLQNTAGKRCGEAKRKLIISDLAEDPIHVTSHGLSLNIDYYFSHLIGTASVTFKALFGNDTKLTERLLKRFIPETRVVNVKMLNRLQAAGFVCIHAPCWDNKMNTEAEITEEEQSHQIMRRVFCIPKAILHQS
T1 sequence (P08546 whole entry): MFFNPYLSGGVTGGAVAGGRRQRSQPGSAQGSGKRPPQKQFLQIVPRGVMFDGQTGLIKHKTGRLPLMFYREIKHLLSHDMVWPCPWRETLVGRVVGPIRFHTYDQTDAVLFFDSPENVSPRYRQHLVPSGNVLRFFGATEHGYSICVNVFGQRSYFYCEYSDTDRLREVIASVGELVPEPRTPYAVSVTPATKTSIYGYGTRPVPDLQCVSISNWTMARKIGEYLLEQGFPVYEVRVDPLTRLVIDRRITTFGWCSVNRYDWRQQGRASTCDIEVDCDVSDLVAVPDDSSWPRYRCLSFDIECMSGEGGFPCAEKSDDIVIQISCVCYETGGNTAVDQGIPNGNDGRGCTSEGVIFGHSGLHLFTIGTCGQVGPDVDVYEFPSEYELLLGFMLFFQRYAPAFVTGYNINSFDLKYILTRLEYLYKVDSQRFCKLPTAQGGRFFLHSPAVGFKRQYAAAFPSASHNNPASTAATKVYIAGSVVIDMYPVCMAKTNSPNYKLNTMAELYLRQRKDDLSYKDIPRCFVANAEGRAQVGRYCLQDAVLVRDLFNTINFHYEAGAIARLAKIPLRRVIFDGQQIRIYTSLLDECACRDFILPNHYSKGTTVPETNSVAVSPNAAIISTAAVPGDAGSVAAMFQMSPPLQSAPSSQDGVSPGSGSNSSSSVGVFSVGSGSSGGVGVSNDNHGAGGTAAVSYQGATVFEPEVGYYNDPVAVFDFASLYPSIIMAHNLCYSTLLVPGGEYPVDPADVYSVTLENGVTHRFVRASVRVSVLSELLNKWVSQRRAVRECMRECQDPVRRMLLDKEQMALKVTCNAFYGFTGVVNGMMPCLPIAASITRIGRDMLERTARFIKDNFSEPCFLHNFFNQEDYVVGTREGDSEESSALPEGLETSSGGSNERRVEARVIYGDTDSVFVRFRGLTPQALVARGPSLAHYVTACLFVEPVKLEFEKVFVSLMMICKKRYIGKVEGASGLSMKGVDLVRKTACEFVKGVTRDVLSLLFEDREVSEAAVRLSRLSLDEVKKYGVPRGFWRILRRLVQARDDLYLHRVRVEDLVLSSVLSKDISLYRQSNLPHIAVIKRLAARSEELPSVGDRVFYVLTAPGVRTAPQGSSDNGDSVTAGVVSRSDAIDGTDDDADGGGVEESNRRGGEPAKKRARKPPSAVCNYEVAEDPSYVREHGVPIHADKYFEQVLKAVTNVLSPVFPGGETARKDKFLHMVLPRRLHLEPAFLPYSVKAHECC

As for `Cc1ncc(-c2cnc(C(=O)NCc3ccc(Cl)cc3)cc2O[C@H]2CCN3C(=O)OC[C@@H]3C2)s1` [Compound 42], the negative logarithm of the IC50 (pIC50) in assay [1] was 8.28; in assay [2], 8.42. Also, the pEC50 in assay [3] (setting [6]) was 7.10; in assay [3] (setting [7]) it was 7.31; in assay [4], 7.23; in assay [5] (setting [8]) it was 7.29; in assay [5] (setting [9]), 7.39.
In the case of `CC(=O)N1CCC(Oc2cc(C(=O)NCc3ccc(Cl)cc3)ncc2-c2cnc(C)s2)CC1` [Compound 43], the negative-log IC50 (pIC50) was 7.60 in assay [1] and 7.84 in assay [2]. Further, the negative-log EC50 (pEC50) in assay [3] (setting [6]) is 6.86; in assay [4] it was 6.75; in assay [5] (setting [8]) it was 6.97.
The like results for `CC(=O)N1CCC(Oc2cc(C(=O)NCc3ccc(Cl)cc3)ncc2-c2cc(C)ns2)CC1` [Compound 44] were, in that order, 7.58, 8.70, 6.92, 6.74 and 6.81.
The like results for `COc1cc(-c2cnc(C(=O)NCc3ccc(Cl)cc3)cc2OC2CCN(C(C)=O)CC2)sn1` [Compound 45] were, in that order, 7.54, 8.47, 6.89, 6.34 and 6.87.
`CC(=O)N1CCC(Oc2cc(C(=O)NCc3ccc(Cl)cc3)ncc2-c2ccns2)CC1` [Compound 46]: the pIC50 in assay [1] was 7.68; in assay [2], 8.40. Besides, the figures for the pEC50 in assay [3] (setting [6]), in assay [4] and in assay [5] (setting [8]) were 6.95, 6.83 and 7.04, respectively.
As for `CC(=O)N1CCC(Oc2cc(C(=O)NCc3ccc(Cl)cc3)ncc2-c2cn(C)c(C)n2)CC1` [Compound 48], the pIC50 in assay [1] is 7.50; in assay [2], 7.53. For the same compound, the negative-log EC50 (pEC50) in assay [3] (setting [6]) is 6.53; in assay [4], 6.43; in assay [5] (setting [8]) it was 6.72.
Regarding `CC(=O)N1CCC(Oc2cc(C(=O)NCc3ccc(Cl)cc3)ncc2-c2nc(C)ns2)CC1` [Compound 49], the results for the negative logarithm of the IC50 (pIC50) in assay [1] and in assay [2] were 7.44 and 7.75, respectively. Further, the negative logarithm of the EC50 (pEC50) is 6.10 in assay [3] (setting [6]), 6.81 in assay [4] and 6.29 in assay [5] (setting [8]).
The like results for `CC(=O)N1CCC(Oc2cc(C(=O)NCc3ccc(Cl)cc3)ncc2-c2nnc(C)s2)CC1` [Compound 54] were, in that order, 7.21, 7.83, 6.74, 6.11 and 6.62.
Regarding `CC(=O)N1CCC(Oc2cc(C(=O)NCc3ccc(Cl)cc3)ncc2-c2nnc(C3CC3)s2)CC1` [Compound 57], the negative-log IC50 (pIC50) in assay [1] is 7.06; in assay [2], 7.90. For the same compound, the negative-log EC50 (pEC50) in assay [3] (setting [6]) is 6.69; in assay [4] it was 6.88; in assay [5] (setting [8]) it was 6.96.
As for `CC(=O)N1CCC(Oc2cc(C(=O)NCc3ccc(Cl)cc3)ncc2-c2ccn(C)n2)CC1` [Compound 61], the pIC50 in assay [1] was 6.62; in assay [2] it was 6.74. The pEC50 is 7.09 in assay [3] (setting [7]), 6.31 in assay [4] and 6.97 in assay [5] (setting [9]).
Take `CC(=O)N1CCC(Oc2cc(C(=O)NCc3ccc(Cl)cc3)ncc2-c2cnn(CCO)c2)CC1` [Compound 62]: the pIC50 was 6.65 in assay [1] and 7.17 in assay [2]. Further, the pEC50 in assay [3] (setting [7]) was 6.79; in assay [4] it was 5.80; in assay [5] (setting [9]), 5.31.
Take `CC(=O)N1CCC(Oc2cc(C(=O)NCc3ccc(Cl)cc3)ncc2-c2ncc(C)s2)CC1` [Compound 63]: the pIC50 in assay [1] was 7.87; in assay [2], 7.95. Besides, the pEC50 in assay [3] (setting [6]) is 6.67; in assay [4] it was 6.61; in assay [5] (setting [8]) it was 6.51; in assay [5] (setting [9]), 7.47.
As to `CC(=O)N1CCC(Oc2cc(C(=O)NCc3ccc(Cl)cc3)ncc2-c2cc[nH]n2)CC1` [Compound 64], the pIC50 in assay [1] is 6.79; in assay [2] it was 7.19. Also, the pEC50 is 6.36 in assay [3] (setting [7]), 5.99 in assay [4] and 5.93 in assay [5] (setting [9]).
As to `CC(=O)N1CCC(Oc2cc(C(=O)NCc3ccc(Cl)cc3)ncc2-c2cnco2)CC1` [Compound 65], the pIC50 is 7.45 in assay [1] and 7.93 in assay [2]. Also, the negative logarithm of the EC50 (pEC50) in assay [3] (setting [6]) is 6.14; in assay [4], 6.11; in assay [5] (setting [8]) it was 6.54.
For `CC(=O)N1CCC(Oc2cc(C(=O)NCc3ccc(Cl)cc3)ncc2-c2cnc(C)o2)CC1` [Compound 66], the results for the negative logarithm of the IC50 (pIC50) in assay [1] and in assay [2] were 7.32 and 7.73, respectively. In addition, the pEC50 in assay [3] (setting [6]) was 6.54; in assay [4], 6.60; in assay [5] (setting [8]) it was 6.62.
In the same order, the values of `CC(=O)N1CCC(Oc2cc(C(=O)NCc3ccc(Cl)cc3)ncc2-c2cnc(C3CC3)o2)CC1` [Compound 67] are 7.30, 7.66, 6.15, 6.21 and 6.18.
In the case of `Cc1cnc(C(=O)NCc2ccc(Cl)cc2)cc1O[C@H]1CCN2C(=O)OC[C@@H]2C1` [Compound 68], the pIC50 in assay [1] is 7.29; in assay [2] it was 7.41. The pEC50 was 5.96 in assay [3] (setting [6]); 6.90 in assay [3] (setting [7]); 6.22 in assay [4]; 6.16 in assay [5] (setting [8]); 6.57 in assay [5] (setting [9]).
Turning to `CC(=O)N1CCC(Oc2cc(C(=O)NCc3ccc(Cl)cc3)ncc2-c2cn[nH]c2)CC1` [Compound 69], the pIC50 in assay [1] was 6.96; in assay [2] it was 7.49. For the same compound, the pEC50 is 6.45 in assay [3] (setting [7]), 6.17 in assay [4] and 5.95 in assay [5] (setting [9]).
The like results for `CC(=O)N1CCC(Oc2cc(C(=O)NCc3ccc(Cl)cc3)ncc2-c2cnn(C(F)F)c2)CC1` [Compound 70] were, in that order, 6.93, 7.56, 6.53, 5.91 and 6.37.
The like results for `CC(=O)N1CCC(Oc2cc(C(=O)NCc3ccc(Cl)cc3)ncc2/C=C\c2ccccn2)CC1` [Compound 77] were, in that order, 6.99, 7.43, 6.64, 6.08 and 6.91.
In the same order, the values of `O=C(NCc1ccc(Cl)cc1)c1cc(O[C@H]2CCN3C(=O)OC[C@@H]3C2)c(CN2CCOCC2)cn1` [Compound 78] are 7.08, 7.50, 6.19, 6.35 and 6.25.
As to `O=C(NCc1ccc(Cl)c(F)c1)c1cc(O[C@H]2CCN3C(=O)OC[C@@H]3C2)c(-c2cnn(C(F)F)c2)cn1` [Compound 79], the results for the pIC50 in assay [1] and in assay [2] were 8.16 and 8.29, respectively. The pEC50 was 6.68 in assay [3] (setting [6]), 6.99 in assay [4], 6.66 in assay [5] (setting [8]) and 6.71 in assay [5] (setting [9]).
For the compound `C[C@H](NC(=O)c1cc(O[C@H]2CCN3C(=O)OC[C@@H]3C2)c(-c2cnn(C(F)F)c2)cn1)c1ccc(Cl)cc1` [Compound 81], the figures for the pIC50 in assay [1] and in assay [2] were 7.84 and 7.92, respectively. Moreover, the negative logarithm of the EC50 (pEC50) is 6.51 in assay [3] (setting [6]), 6.51 in assay [4] and 6.81 in assay [5] (setting [8]).

For orientation: pIC50 means the negative decadic logarithm of the IC50, by convention in mol/L. A higher pIC50 goes with a small IC50. Broadly, the pEC50 is the negative decadic logarithm of the EC50, by convention in mol/L.
